Among the data in PubChem BioAssay (NCI) are GI50 and TGI values, retold here.

Structures are written as SMILES.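 Results reflect a 48-hour exposure of cells in 96-well plates to compound at five concentrations. GI50 is the concentration that inhibits growth by half. At the TGI there is no net growth.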

Among the test systems are HT29 colon; TK-10 renal; SW-620 colon; HOP-92 NSCLC; NCI-H522 lung; NCI-H226 lung; NCI-H23 lung; DU-145 prostate; SK-MEL-28 melanoma; A498 renal.
Holding throughout (experiment): NCI anticancer screen, dose series, 48 h

Turning to `CCOC(=O)[C@@H](C)C[C@H](Cc1ccccc1)NC(=O)c1csc([C@@H](C[C@H](C(C)C)N(C)C(=O)[C@H](CC)NC(=O)[C@H]2CCCCN2C)OC(C)=O)n1`, the GI50 is under 0.00167 µM in the assay on HT29 colon; under 0.00167 µM with SW-620 colon; under 0.00167 µM with HOP-92 NSCLC; under 0.00167 µM in the assay on NCI-H522 lung; 0.00335 µM with NCI-H226 lung; 0.00476 µM in the assay with NCI-H23 lung. Further, the GI50 in the assay on DU-145 prostate was under 0.00167 µM. In addition, the TGI with HT29 colon is over 16.7 µM; with TK-10 renal, over 16.7 µM; in the assay on SW-620 colon it was over 16.7 µM; in the assay with HOP-92 NSCLC it was 0.236 µM; in the assay on NCI-H522 lung it was 0.362 µM; in the assay on NCI-H226 lung, 0.102 µM. Besides, the TGI was over 16.7 µM in the assay with NCI-H23 lung and 0.253 µM in the assay on DU-145 prostate.
For `OCC1OC(n2cnc3c(Cl)nc(Cl)cc32)C(O)C1O` (stereo not drawn), the GI50 with HT29 colon was over 100 µM; in the assay on TK-10 renal it was over 100 µM; with SW-620 colon, over 100 µM; in the assay with HOP-92 NSCLC, 37.4 µM; with NCI-H522 lung, over 100 µM; with SK-MEL-28 melanoma it was over 100 µM. For the same molecule, the GI50 in the assay with NCI-H23 lung and in the assay on DU-145 prostate was over 100 µM throughout. Moreover, the TGI in the assay on HT29 colon, in the assay with TK-10 renal, in the assay on SW-620 colon, in the assay on HOP-92 NSCLC, in the assay on NCI-H522 lung and with SK-MEL-28 melanoma was over 100 µM throughout. Also, the TGI in the assay with NCI-H23 lung and in the assay with DU-145 prostate was over 100 µM throughout.
Turning to `C=C(C)[C@@H]1CC[C@]2(CO)CC[C@]3(C)[C@H](CC[C@@H]4[C@@]5(C)CCC(NCCc6ccc(O)cc6)C(C)(C)[C@@H]5CC[C@]43C)[C@@H]12` (stereo partly drawn), the GI50 is 1.09 µM in the assay on HT29 colon; 1.65 µM with TK-10 renal; 1.41 µM in the assay on SW-620 colon; 1.32 µM in the assay with A498 renal; 1.46 µM in the assay with HOP-92 NSCLC; 1.72 µM with NCI-H522 lung. Moreover, the GI50 in the assay with SK-MEL-28 melanoma was 1.58 µM; in the assay on NCI-H23 lung, 1.79 µM; with DU-145 prostate, 1.62 µM. Also, the TGI amounted to 2.49 µM with HT29 colon; 3.13 µM in the assay on TK-10 renal; 2.89 µM in the assay on SW-620 colon; 2.69 µM in the assay on A498 renal; 2.95 µM in the assay on HOP-92 NSCLC; 3.33 µM in the assay on NCI-H522 lung. For the same molecule, the TGI was found to be 3 µM in the assay with SK-MEL-28 melanoma, 3.35 µM in the assay on NCI-H23 lung and 3.03 µM in the assay with DU-145 prostate.
On to `O=S(=O)(Nc1cc(Cl)ccc1Cl)c1ccc(-c2cnc(C3CC3)o2)cc1`, for which the GI50 is 0.654 µM in the assay on HT29 colon; 13.6 µM in the assay on TK-10 renal; 0.814 µM in the assay on SW-620 colon; 1.21 µM in the assay on HOP-92 NSCLC; 1.75 µM with NCI-H522 lung; 4.55 µM in the assay on NCI-H226 lung. For the same molecule, the values for the GI50 in the assay on SK-MEL-28 melanoma, with NCI-H23 lung and with DU-145 prostate were 6.21 µM, 2.84 µM and 3.72 µM, respectively. Besides, the TGI in the assay on HT29 colon was 13.5 µM; with TK-10 renal, over 100 µM; with SW-620 colon, over 100 µM; with HOP-92 NSCLC it was 8.42 µM; with NCI-H522 lung, 39.2 µM; in the assay on NCI-H226 lung, 38.6 µM. Besides, the TGI in the assay with SK-MEL-28 melanoma was 82.8 µM; in the assay on NCI-H23 lung, 67.2 µM; with DU-145 prostate, over 100 µM.
Take `O=C1c2ccccc2-c2c1c1c(O)cccc1n2-c1ccccc1`: the GI50 with HT29 colon was over 100 µM; in the assay on TK-10 renal, over 100 µM; in the assay with SW-620 colon, over 100 µM; with NCI-H522 lung, over 100 µM; with NCI-H226 lung, over 100 µM; with SK-MEL-28 melanoma, 18.5 µM. Further, the GI50 with NCI-H23 lung and in the assay on DU-145 prostate was over 100 µM throughout. The TGI was over 100 µM in the assay on HT29 colon; over 100 µM in the assay with TK-10 renal; over 100 µM in the assay on SW-620 colon; 0.035 µM with HOP-92 NSCLC; over 100 µM with NCI-H522 lung; over 100 µM in the assay on NCI-H226 lung. Also, the TGI in the assay on SK-MEL-28 melanoma, in the assay with NCI-H23 lung and in the assay with DU-145 prostate was over 100 µM each time.
With `CSc1ncnc2c1ncn2C1OC(CO)C(O)OC1O` (stereo not drawn), the TGI with HT29 colon was over 37.4 µM; in the assay on TK-10 renal it was 1.19 µM; with SW-620 colon, over 100 µM; in the assay on A498 renal, over 53.1 µM; with HOP-92 NSCLC, 22.7 µM; with NCI-H522 lung, over 100 µM. Also, the TGI with SK-MEL-28 melanoma is 69.5 µM; in the assay with NCI-H23 lung, over 44 µM; with DU-145 prostate, 39.4 µM.
As for `O=C1OC(c2ccccc2)(c2cc(Br)c(O)c(Br)c2)c2ccccc21` (stereo not drawn), the GI50 is 27 µM with SW-620 colon; 21.1 µM in the assay on A498 renal; 16.6 µM in the assay on HOP-92 NSCLC; 26.2 µM in the assay on NCI-H226 lung; 21.1 µM with SK-MEL-28 melanoma; 21.3 µM in the assay on NCI-H23 lung. For the same molecule, the GI50 in the assay on DU-145 prostate is 27.4 µM. Also, the TGI was over 100 µM with SW-620 colon; 52 µM in the assay on A498 renal; 40.5 µM in the assay with HOP-92 NSCLC; 84.4 µM with NCI-H226 lung; 49.2 µM in the assay on SK-MEL-28 melanoma; 59.1 µM in the assay with NCI-H23 lung. The same molecule returned a TGI in the assay with DU-145 prostate of over 100 µM.
As to `C=C(CN1CCN(c2cccc(C(F)(F)F)n2)CC1)c1ccc(C(=S)Nc2ccccc2N)cc1`, the GI50 is 3.05 µM in the assay with HT29 colon; 3.13 µM with TK-10 renal; 4.07 µM in the assay with SW-620 colon; 2.57 µM with A498 renal; 3.01 µM in the assay with NCI-H522 lung; 4.91 µM in the assay with NCI-H226 lung. Moreover, the GI50 is 6.95 µM in the assay on SK-MEL-28 melanoma, 2.81 µM in the assay with NCI-H23 lung and 6.99 µM with DU-145 prostate. In addition, the TGI with HT29 colon was 18.2 µM; in the assay with TK-10 renal it was over 100 µM; with SW-620 colon it was 72.2 µM; with A498 renal, over 100 µM; in the assay on NCI-H522 lung it was 31.4 µM; in the assay with NCI-H226 lung, over 100 µM. The TGI in the assay on SK-MEL-28 melanoma was 42.1 µM; in the assay with NCI-H23 lung, 8.85 µM; in the assay on DU-145 prostate, over 100 µM.
In the case of `Cc1ccc(-c2nc(N3CCCNCC3)c3oc(-c4ccccc4)nc3n2)cc1`, the GI50 is 1.69 µM with HT29 colon; 1.8 µM with TK-10 renal; 1.68 µM in the assay with SW-620 colon; 1.66 µM in the assay on A498 renal; 1.72 µM in the assay with NCI-H522 lung; 1.82 µM with NCI-H226 lung. In addition, the GI50 in the assay on SK-MEL-28 melanoma is 1.85 µM; in the assay with NCI-H23 lung, 1.95 µM; with DU-145 prostate, 1.89 µM. Further, the TGI in the assay with HT29 colon was found to be 3.15 µM; with TK-10 renal, 3.2 µM; in the assay on SW-620 colon it was 3.21 µM; with A498 renal, 3.16 µM; with NCI-H522 lung, 3.29 µM; with NCI-H226 lung it was 3.97 µM. Also, the TGI in the assay on SK-MEL-28 melanoma was 3.39 µM; with NCI-H23 lung it was 3.71 µM; with DU-145 prostate, 3.4 µM.
